{"source": "patent US5550165A", "about": "“Pharmaceutical compositions for the treatment of hereditary tyosinemia type I” (Zeneca Limited, priority 1991, dated 1996)", "key": {"[1]": {"tested_on": "tyrosinaemia (type I) patients", "test": "Therapeutic evaluation in patients with tyrosinaemia (type I)", "assay_type": "in vivo, human"}, "[2]": {"tested_on": "tyrosinaemia (type I) patients", "test": "Therapeutic evaluation in patients with tyrosinaemia (type I)", "assay_type": "in vivo, human", "procedure": "Patients with an advanced form of the disease will be given the test composition (generally about 0.2-2.0 mg of active ingredient per kg body weight) orally. A blood sample will be taken daily during the first week and then less frequently at the discretion of the physician. Urine specimens will normally be collected daily. The indicators outlined below will be used to monitor the response to the test composition. The treatment will be maintained for up to 12 months if a clinically and biochemically satisfactory response is observed. If not, the dose of active ingredient administered will be increased stepwise to a maximum of about 2 mg/kg per day. Should any adverse indication occur, based on the biochemical monitoring or clinical assessment dosing will be stopped immediately.\nThe patients will be placed on a tyrosine-restricted diet with the aim of keeping plasma tyrosine concentrations below 500 μmol/L. A large increase in the tyrosine concentration in plasma is not expected to occur, but levels will be monitored throughout the dosing. Changes in the excretion of the biochemical markers mentioned below, such as succinylacetoacetate, succinylacetone and 5-aminolevulinic acid will be monitored, as will the effect on porphobilinogen synthase and α-fetoprotein concentration.\nTyrosine and Methionine--these amino acids will be determined in plasma by a standard technique using an amino-acid analyser.\nSuccinylacetoacetate and Succinylacetone--these compounds will be determined in urine by gas chromatography--mass spectrometry. Succinylacetone in plasma will be determined by measuring the inhibition of porphobilinogen synthase using a conventional assay.\n5-Aminolevulinic acid--this will be determined in urine by a conventional colorimetric assay.\nα-Fetoprotein--this will be determined in plasma by a conventional radioimmunoassay technique.\nPorphobilinogen synthase--this will be determined in erythrocytes using a conventional colorimetric assay.\nA patient was admitted to hospital after problems with slight nose bleedings and the parents noting swelling of the abdomen. Metabolic screening in hospital diagnosed tyrosinaemia (type I) based on the abnormal excretion of succinylacetone, succinylacetoacetate and 5-aminolevulinic acid in urine and a low activity of porphobilinogen synthase in erythrocytes. […] This was increased to 0.16 mg/kg b.w. after four days, and then to about 0.4 mg/kg by the end of the first 2 months, the dose being divided into two portions for morning and afternoon administration. The dose was then increased to about 0.6 mg/kg after a further 5 months.", "remark": "listed apart in the source"}, "[3]": {"test": "90 day oral toxicity in rhesus monkeys", "assay_type": "in vivo", "conditions": "over 90 days, daily oral dose of 10 mg/kg"}, "[4]": {"conditions": "Patient 2, capsule formulation 0.2 mg/kg b.w."}, "[5]": {"conditions": "Patient 3, capsule formulation 0.2 mg/kg b.w., after 5 months 0.6 mg/kg b.w."}, "[6]": {"conditions": "Patient 4, capsule formulation 0.2 mg/kg b.w., after 5 months 0.6 mg/kg b.w."}, "[7]": {"conditions": "Patient 1, capsule formulation, 0.08 increased to about 0.6 mg/kg b.w."}}}
{"smiles": "O=C1CCCC(=O)C1C(=O)c1ccc(C(F)(F)F)cc1[N+](=O)[O-]", "note": "[the Compound, 2-(2-nitro-4-trifluoromethylbenzoyl)-1,3-cyclohexanedione]", "values": [{"measurement": "serum α-fetoprotein concentration after dosing", "setting": "[1]; Patient 1, decreased from 7,200 μg/L during dosing", "result": 96, "unit": "µg/L"}, {"measurement": "excretion of succinylacetone and succinylacetoacetate after treatment", "setting": "[1]; Patient 1, urine, immediate decrease from 50 mmol/mol of creatinine", "result": "< 1 mmol/mol of creatinine"}, {"measurement": "methionine concentration in plasma", "setting": "[1]; Patient 1, very high initially, after start of treatment", "result": "dropped to normal levels very rapidly"}, {"measurement": "clinical position of the patient", "setting": "[1]; Patient 2, 0.2 mg/kg b.w.", "result": "improved"}, {"measurement": "serum levels of α-fetoprotein after treatment", "setting": "[1]; Patient 2, 0.2 mg/kg b.w., decreased from ca. 900 μg/L", "result": 40, "unit": "µg/L"}, {"measurement": "serum levels of succinylacetone", "setting": "[1]; [4]", "result": "decreased"}, {"measurement": "urinary levels of 5-aminolevulinic acid", "setting": "[1]; [4]", "result": "decreased"}, {"measurement": "urinary levels of succinylacetone", "setting": "[1]; [4]", "result": "decreased"}, {"measurement": "porphobilinogen synthase activity", "setting": "[1]; Patient 2, capsule formulation 0.2 mg/kg b.w., initial 3 month dosing period", "result": "increased to normal levels"}, {"measurement": "clinical position of the patient", "setting": "[1]; Patient 3, 0.2 then 0.6 mg/kg b.w.", "result": "improved"}, {"measurement": "serum levels of α-fetoprotein after treatment", "setting": "[1]; Patient 3, 0.2 then 0.6 mg/kg b.w., fell from ca. 900 μg/L", "result": 11, "unit": "µg/L"}, {"measurement": "plasma levels of succinylacetone", "setting": "[1]; [5]", "result": "substantially lowered"}, {"measurement": "urinary levels of 5-aminolevulinic acid", "setting": "[1]; [5]", "result": "substantially lowered"}, {"measurement": "clinical position of the patient", "setting": "[1]; Patient 4, 0.2 then 0.6 mg/kg b.w.", "result": "improved"}, {"measurement": "serum levels of α-fetoprotein after treatment", "setting": "[1]; Patient 4, 0.2 then 0.6 mg/kg b.w., fell from ca. 2000 μg/L", "result": 48, "unit": "µg/L"}, {"measurement": "plasma levels of succinylacetone", "setting": "[1]; [6]", "result": "substantially lowered"}, {"measurement": "urinary levels of 5-aminolevulinic acid", "setting": "[1]; [6]", "result": "substantially lowered"}, {"measurement": "urinary levels of succinylacetone", "setting": "[1]; [6]", "result": "substantially lowered"}, {"measurement": "excretion of 5-aminolevulinic acid", "setting": "[2]; [7]", "result": "concomitant decrease"}, {"measurement": "porphobilinogen synthase activity in erythrocytes", "setting": "[2]; [7]", "result": "immediate increase"}, {"measurement": "overall clinical condition of the patient", "setting": "[2]; Patient 1, during the treatment period", "result": "improved markedly"}, {"measurement": "plasma succinylacetone levels", "setting": "[2]; Patient 1, immediate decrease, after about 30 days", "result": "to the limit of detection"}, {"measurement": "decrease of concentration of amino acids in urine", "setting": "[2]; Patient 1, very high before treatment, after treatment", "result": "5-10 times"}, {"measurement": "urinary levels of succinylacetone", "setting": "[2]; [5]", "result": "substantially lowered"}, {"measurement": "toxic or other adverse effects", "setting": "[3]", "result": "no significant toxic or other adverse effects"}]}
